In the assay the target is T1, human sortilin (sSORT) (Homo sapiens, UniProt Q99523).
T1 sequence (Q99523 78-756 limits assumed): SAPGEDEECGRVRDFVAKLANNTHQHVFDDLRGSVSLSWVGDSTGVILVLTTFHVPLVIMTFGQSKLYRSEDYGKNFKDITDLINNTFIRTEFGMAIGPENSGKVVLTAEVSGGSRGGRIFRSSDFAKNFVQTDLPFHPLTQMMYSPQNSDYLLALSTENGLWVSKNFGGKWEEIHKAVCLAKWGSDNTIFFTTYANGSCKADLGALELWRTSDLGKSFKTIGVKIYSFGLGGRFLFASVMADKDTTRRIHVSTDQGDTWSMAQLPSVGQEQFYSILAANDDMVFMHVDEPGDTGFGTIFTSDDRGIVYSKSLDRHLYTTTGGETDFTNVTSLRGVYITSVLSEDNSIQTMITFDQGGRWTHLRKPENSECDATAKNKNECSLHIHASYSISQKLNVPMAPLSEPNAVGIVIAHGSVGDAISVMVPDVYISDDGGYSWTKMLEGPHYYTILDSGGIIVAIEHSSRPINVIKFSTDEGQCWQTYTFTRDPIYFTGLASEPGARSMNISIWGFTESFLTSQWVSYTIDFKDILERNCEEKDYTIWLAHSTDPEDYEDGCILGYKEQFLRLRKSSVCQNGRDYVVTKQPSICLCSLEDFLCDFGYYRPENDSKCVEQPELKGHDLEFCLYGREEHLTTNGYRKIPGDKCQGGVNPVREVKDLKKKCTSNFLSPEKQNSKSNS
In words: Neurotensin competitive fluorescence polarization binding assay (FPA). Particulars: mean IC50 values for sortilin inhibitors, IC50 (nM), 100 nM sSORT, 10 nM Neurotensin-Ahx-FITC, 1 h room temperature. A general note: Fluorescence polarisation rises when a labelled molecule tumbles more slowly, as on binding a larger partner.
Method: Fresh 0.1% bovine serum albumin (BSA) was added to the assay buffer to obtain the final concentration: 50 mM HEPES, pH 7.4; 100 mM NaCl; 2.0 mM CaCl2; 0.1% BSA; 0.1% TWEEN® 20. The sortilin inhibitors of the invention and reference compounds (see Table 1) analyzed in the screen and neurotensin (used as an assay control) were serially diluted in ten different concentrations in assay buffer. In each well of a Nunc® MaxiSorp™ 384-well plate (Sigma Aldrich), 100 nM sSORT was mixed with pre-diluted sortilin inhibitors and 10 nM Neurotensin-Ahx-FITC in assay buffer adjusted to contain 1% DMSO in a final volume of 20 μl. The plate was then briefly centrifuged prior to 1 h incubation at room temperature in the dark.
In the case of `Cc1nc(N(C)C)ncc1C(=O)NC(/C=C/C(C)(C)C)C(=O)O` (single isomer, unassigned) [SI1 (active enantiomer), (E)-2-[2-(dimethylamino)-4-methyl-5-pyrimidinylcarbonylamino]-5,5-dimethyl-3-hexenoic acid], the IC50 (commonly the point on the concentration scale where inhibition reaches its midpoint) was 9 nM. The value for `CC(C)(C)/C=C/C(NC(=O)C1CN(c2ccccn2)CCN1)C(=O)O` (single isomer, unassigned) [SI3 diastereomer 1, (E)-5,5-dimethyl-2-[4-(2-pyridyl)-2-piperazinylcarbonylamino]-3-hexenoic acid] was 135 nM; that for `CC(C)(C)/C=C/C(NC(=O)C1CN(c2ccccn2)CCN1)C(=O)O` (single isomer, unassigned) [SI3 diastereomer 2, (E)-5,5-dimethyl-2-[4-(2-pyridyl)-2-piperazinylcarbonylamino]-3-hexenoic acid] was 339 nM. The value for `CC(C)(C)/C=C/C(NC(=O)C1CN(c2ccncc2)CCN1)C(=O)O` (single isomer, unassigned) [SI4 diastereomer 1, (E)-5,5-dimethyl-2-[4-(4-pyridyl)-2-piperazinylcarbonylamino]-3-hexenoic acid] was 229 nM; that for `CC(C)(C)/C=C/C(NC(=O)C1CN(c2ccncc2)CCN1)C(=O)O` (single isomer, unassigned) [SI4 diastereomer 2, (E)-5,5-dimethyl-2-[4-(4-pyridyl)-2-piperazinylcarbonylamino]-3-hexenoic acid] was 912 nM. The compound `CC(C)(C)/C=C/C(NC(=O)c1ccc(Oc2ccccc2)nc1)C(=O)O` (single isomer, unassigned) [SI (active enantiomer), (E)-5,5-dimethyl-2-(6-phenoxynicotinoylamino)-3-hexenoic acid] had an IC50 of 5 nM. The value for `Cc1nc(N(C)C)ncc1C(=O)NC(CCC(C)(C)C)C(=O)O` (centres unmarked) [RC1, 2-[2-(dimethylamino)-4-methyl-5-pyrimidinylcarbonylamino]-5,5-dimethylhexanoic acid, reference compound] was 123 nM; that for `CC(C)(C)CC[C@H](NC(=O)c1ccc(Oc2ccccc2)nc1)C(=O)O` [RC2 (active enantiomer), (S)-5,5-dimethyl-2-(6-phenoxynicotinoylamino)hexanoic acid, reference compound] was 28 nM; that for `CC(C)(C)/C=C/C(NC(=O)c1ccc(C(=O)C(F)(F)F)cc1)C(=O)O` (centres unmarked) [SI2, (E)-5,5-dimethyl-2-[p-(2,2,2-trifluoroacetyl)benzoylamino]-3-hexenoic acid] was 234 nM. As for `CC(C)(C)/C=C/C(NC(=O)c1cccc(-n2cnnc2)c1)C(=O)O` (centres unmarked) [SI6, (E)-5,5-dimethyl-2-[m-(4H-1,2,4-triazol-4-yl)benzoylamino]-3-hexenoic acid], the IC50 was found to be 62 nM.

`Cc1cc2[nH]c(C(=O)NC(/C=C/C(C)(C)C)C(=O)O)cc2cn1` (centres unmarked) [SI7, (E)-5,5-dimethyl-2-(6-methyl-1H-1,5-diazainden-2-ylcarbonylamino)-3-hexenoic acid]: the IC50 stood at 89 nM. Next, `CC(C)Cc1cc(C(=O)NC(/C=C/C(C)(C)C)C(=O)O)n(C)n1` (centres unmarked) [SI9, (E)-2-(3-isobutyl-1-methyl-5-pyrazolylcarbonylamino)-5,5-dimethyl-3-hexenoic acid]: 102 nM; `CN(C)c1ncc(C(=O)NC(/C=C/C(C)(C)C)C(=O)O)cn1` (centres unmarked) [SI17, (E)-2-[2-(dimethylamino)-5-pyrimidinylcarbonylamino]-5,5-dimethyl-3-hexenoic acid]: 149 nM. Next, `CN(C)c1nccc(C(=O)NC(/C=C/C(C)(C)C)C(=O)O)n1` (centres unmarked) [SI19, (E)-2-[2-(dimethylamino)-4-pyrimidinylcarbonylamino]-5,5-dimethyl-3-hexenoic acid]: 851 nM; `Cc1cc(C(=O)NC(/C=C/C(C)(C)C)C(=O)O)nc(N(C)C)n1` (centres unmarked) [SI20, (E)-2-[2-(dimethylamino)-6-methyl-4-pyrimidinylcarbonylamino]-5,5-dimethyl-3-hexenoic acid]: 1000 nM. Next, `CC(C)(C)/C=C/C(NC(=O)c1ccc(-n2cnnc2)cc1)C(=O)O` (centres unmarked) [SI23, (E)-5,5-dimethyl-2-[p-(4H-1,2,4-triazol-4-yl)benzoylamino]-3-hexenoic acid]: 158 nM. Turning to `CC(C)(C)/C=C/C(NC(=O)c1cccc(-n2cncn2)c1)C(=O)O` (centres unmarked) [SI24, (E)-5,5-dimethyl-2-[m-(1H-1,2,4-triazol-1-yl)benzoylamino]-3-hexenoic acid], the IC50 worked out at 52 nM.

`CC(C)(C)/C=C/C(NC(=O)c1cc(Br)c[nH]1)C(=O)O` (centres unmarked) [SI28, (E)-2-(4-bromo-2-pyrrolylcarbonylamino)-5,5-dimethyl-3-hexenoic acid] showed an IC50 of 55 nM. The IC50 values of the last two compounds are within 1.5-fold of each other. The compound `CC(C)(C)/C=C/C(NC(=O)c1ccc(Cl)[nH]1)C(=O)O` (centres unmarked) [SI29, (E)-2-(5-chloro-2-pyrrolylcarbonylamino)-5,5-dimethyl-3-hexenoic acid] came in with an IC50 of 80 nM. `Cn1cc(Cl)cc1C(=O)NC(/C=C/C(C)(C)C)C(=O)O` (centres unmarked) [SI31, (E)-2-(4-chloro-1-methyl-2-pyrrolylcarbonylamino)-5,5-dimethyl-3-hexenoic acid] showed an IC50 of 71 nM.

With `CC(C)(C)/C=C/C(NC(=O)c1ccc(Oc2cccnc2)cc1)C(=O)O` (centres unmarked) [SI34, (E)-5,5-dimethyl-2-[p-(3-pyridyloxy)benzoylamino]-3-hexenoic acid], the IC50 is 56 nM. This IC50 and that of the compound before are within 1.5-fold of each other.

`CC(C)(C)/C=C/C(NC(=O)c1cnc(Oc2ccccc2)nc1)C(=O)O` (centres unmarked) [SI44, (E)-5,5-dimethyl-2-(2-phenoxy-5-pyrimidinylcarbonylamino)-3-hexenoic acid] yielded an IC50 of 158 nM. Compared with the last compound, the IC50 is about 2.8-fold higher. In turn, `CC(C)(C)/C=C/C(NC(=O)c1cccc(-n2cnnc2)n1)C(=O)O` (centres unmarked) [SI50, (E)-5,5-dimethyl-2-[6-(4H-1,2,4-triazol-4-yl)-2-pyridylcarbonylamino]-3-hexenoic acid] came in with an IC50 of 668 nM. Against the preceding compound, the IC50 is about 4.2-fold higher. The value for `CC(C)(C)/C=C/C(NC(=O)c1cccc(-c2cccs2)c1)C(=O)O` (centres unmarked) [SI52, (E)-5,5-dimethyl-2-[m-(2-thienyl)benzoylamino]-3-hexenoic acid] was 31 nM. Next, `CC(C)(C)/C=C/C(NC(=O)c1ccc(Oc2ccc(Cl)cc2)cc1)C(=O)O` (centres unmarked) [SI53, (E)-2-[p-(p-chlorophenoxy)benzoylamino]-5,5-dimethyl-3-hexenoic acid]: 148 nM. The value for `CC(C)(C)/C=C/C(NC(=O)c1ccc(Oc2cccc(Cl)c2)cc1)C(=O)O` (centres unmarked) [SI54, (E)-2-[p-(m-chlorophenoxy)benzoylamino]-5,5-dimethyl-3-hexenoic acid] was 158 nM; that for `CC(C)(C)/C=C/C(NC(=O)c1ccc(COc2ccccc2)cc1)C(=O)O` (centres unmarked) [SI55, (E)-5,5-dimethyl-2-[p-(phenoxymethyl)benzoylamino]-3-hexenoic acid] was 116 nM. Consider `CCn1nc(CC(C)C)cc1C(=O)NC(/C=C/C(C)(C)C)C(=O)O` (centres unmarked) [SI56, (E)-2-(1-ethyl-3-isobutyl-5-pyrazolylcarbonylamino)-5,5-dimethyl-3-hexenoic acid], for which the IC50 stood at 95 nM.

`Cn1nc(Cl)cc1C(=O)NC(/C=C/C(C)(C)C)C(=O)O` (centres unmarked) [SI57, (E)-2-(3-chloro-1-methyl-5-pyrazolylcarbonylamino)-5,5-dimethyl-3-hexenoic acid]: the IC50 worked out at 45 nM.
